How the values were obtained:
[1] = tested on: rat; conditions: Developmental neurotoxicity study; long evans; Injection; Intraperitoneal; dose end: 21 PND; group: cannot be grouped; systemic / in life observation / body weight / offspring (pup) weight
[2] = tested on: rat; conditions: Developmental neurotoxicity study, long evans, Injection, Intraperitoneal, dose end: 66 PND, group: cannot be grouped
[3] = tested on: rat; conditions: Developmental neurotoxicity study; long evans; Injection; Intraperitoneal; dose end: 18 PND; group: cannot be grouped; systemic / pathology gross / brain / reduced size + systemic / pathology microscopic / brain / depletion cellular
[4] = tested on: rat; conditions: Developmental neurotoxicity study, long evans, Injection, Intraperitoneal, dose end: 122 PND, group: cannot be grouped
[5] = tested on: rat; conditions: Subchronic oral toxicity in rodents, sprague dawley, Feed, dose end: 13 week, group: systemic
[6] = tested on: dog; conditions: Chronic toxicity; beagle; Oral; Feed; dose end: 52 week; group: systemic; systemic / hematology / blood clotting / blood clotting - prothrombin time + systemic / hematology / erythrocyte (rbc) count differential / …
[7] = tested on: rat; conditions: Subchronic inhalation toxicity, wistar, Whole-Body, dose end: 78 day, group: systemic, systemic / organ weight / kidney / nos + systemic / organ weight / liver / nos + systemic / organ weight / ovary / nos + systemic / …
[8] = tested on: mouse; conditions: Carcinogenicity, cd1, Oral, Feed, dose end: 108 week, group: systemic
[9] = tested on: mouse; conditions: Subchronic oral toxicity in rodents, cd1, Feed, dose end: 90 day, group: systemic
[10] = tested on: rat; conditions: Prenatal developmental toxicity study, sprague dawley, Oral, Gavage/Intubation, dose end: 17 GD
[11] = tested on: rat; conditions: Multigenerational reproductive toxicity study, other, Oral, Feed, dose end: 2 generation
[12] = tested on: rabbit; conditions: Prenatal developmental toxicity study, new zealand white, Oral, Gavage/Intubation, dose end: 28 GD
[13] = tested on: rat; conditions: Combined chronic toxicity/carcinogenicity; sprague dawley; Oral; Feed; dose end: 104 week; group: systemic; systemic / hematology / blood clotting / blood clotting - thromboplastin time + systemic / hematology / platelet / platelet + systemic / …
[14] = tested on: rat; conditions: Prenatal developmental toxicity study; sprague dawley; Oral; Gavage/Intubation; dose end: 15 GD; group: maternal; reproductive / reproductive performance / postimplantation loss / postimplantation loss + reproductive / reproductive performance / …
[15] = tested on: dog; conditions: Chronic toxicity, beagle, Oral, Feed, dose end: 104 week
[16] = tested on: rat; conditions: Combined chronic toxicity/carcinogenicity, sprague dawley, Oral, Feed, dose end: 103 week
[17] = tested on: rat; conditions: Subchronic oral toxicity in rodents, Feed, dose end: 13 week
[18] = systemic / clinical chemistry / [other] / [other] + systemic / clinical chemistry / protein / protein + systemic / in life observation / …
[19] = systemic / clinical chemistry / [other] / [other] + systemic / clinical chemistry / protein / protein + systemic / organ weight / brain / …
[20] = systemic / in life observation / body weight / offspring (pup) weight + systemic / in life observation / clinical signs / [other] + systemic…
[21] = systemic / organ weight / brain / nos
[22] = systemic / clinical chemistry / alanine aminotransferase (alt/sgpt) / alanine aminotransferase (alt/sgpt) + systemic / clinical chemistry / …
[23] = systemic / in life observation / body weight / body weight gain + systemic / in life observation / mortality / mortality
[24] = systemic / in life observation / body weight / body weight gain + systemic / in life observation / mortality / mortality + systemic / …
[25] = systemic / hematology / erythrocyte (rbc) count differential / erythrocyte (rbc) + systemic / hematology / hematocrit (hct) / hematocrit (…
[26] = group: developmental, systemic / in life observation / clinical signs / mobility + systemic / in life observation / clinical signs / rearing activity + …
[27] = group: maternal, systemic / in life observation / clinical signs / salivation
[28] = group: offspring, systemic / organ weight / liver / relative to body weight
[29] = group: offspring, systemic / organ weight / liver / relative to body weight + systemic / in life observation / body weight / offspring (pup) weight + systemic…
[30] = group: parental, systemic / organ weight / thyroid gland / absolute
[31] = group: developmental, systemic / in life observation / body weight / fetal weight
[32] = group: maternal, reproductive / reproductive performance / aborted / aborted + reproductive / reproductive performance / postimplantation loss / …
[33] = group: cholinesterase, cholinesterase / cholinesterase / cholinesterase / brain cholinesterase (che) + cholinesterase / cholinesterase / cholinesterase / whole …
[34] = group: systemic, systemic / in life observation / water consumption / water consumption
[35] = group: cholinesterase, cholinesterase / cholinesterase / cholinesterase / brain cholinesterase (che)
[36] = group: cholinesterase, cholinesterase / cholinesterase / cholinesterase / brain cholinesterase (che) + cholinesterase / cholinesterase / cholinesterase / plasma …
[37] = group: systemic, systemic / pathology microscopic / eye / cataract
[38] = group: cholinesterase, cholinesterase / cholinesterase / cholinesterase / whole blood cholinesterase (che) + cholinesterase / cholinesterase / cholinesterase / …
[39] = group: systemic, systemic / in life observation / food consumption / food consumption

## [CH3][Sn+]([CH3])[CH3].[OH-] [Trimethyltin hydroxide]
[1]
  LEL: 6 mg/kg/day
  LOAEL: > 6 mg/kg/day
  NEL: 5 mg/kg/day
  NOAEL: ≥ 6 mg/kg/day
[2]; [18]
  LOAEL: > 6 mg/kg/day
  NOAEL: ≥ 6 mg/kg/day
[2]; [19]
  LEL: 5 mg/kg/day
  NEL: < 5 mg/kg/day
[3]
  LEL: 6 mg/kg/day
  LOAEL: > 6 mg/kg/day
  NEL: < 6 mg/kg/day
  NOAEL: ≥ 6 mg/kg/day
[4]; [20]
  LOAEL: > 6 mg/kg/day
  NOAEL: ≥ 6 mg/kg/day
[4]; [21]
  LEL: 4 mg/kg/day
  NEL: < 4 mg/kg/day

## CCOc1ccc(C(C)(C)COCc2cccc(Oc3ccccc3)c2)cc1 [Etofenprox]
[5]; [22]
  LOAEL: 120 mg/kg/day
  NOAEL: 20 mg/kg/day
[5]; systemic / clinical chemistry / glucose / glucose
  LEL: 23 mg/kg/day
[5]; systemic / clinical chemistry / glucose / glucose + systemic / clinical chemistry / alanine aminotransferase (alt/sgpt) / alanine …
  NEL: 3.8 mg/kg/day
[6]
  LEL: 339 mg/kg/day
  LOAEL: 339 mg/kg/day
  NEL: 32.2 mg/kg/day
  NOAEL: 32.2 mg/kg/day
[7]
  LEL: 52.3 mg/kg/day
  LOAEL: 52.3 mg/kg/day
  NEL: 10.6 mg/kg/day
  NOAEL: 10.6 mg/kg/day
[8]; [23]
  LEL: 10.4 mg/kg/day
  LOAEL: 10.4 mg/kg/day
[8]; [24]
  NEL: 3.1 mg/kg/day
  NOAEL: 3.1 mg/kg/day
[9]; [25]
  LOAEL: 375 mg/kg/day
  NEL: 6.1 mg/kg/day
  NOAEL: 60 mg/kg/day
[9]; systemic / hematology / mean corpuscular (cell) volume (mcv) / mean corpuscular (cell) volume (mcv) + systemic / hematology / monocytes / …
  LEL: 60 mg/kg/day
[10]; group: developmental, systemic / in life observation / clinical signs / mobility + systemic / in life observation / clinical signs / rearing activity
  LEL: 250 mg/kg/day
[10]; [26]
  LOAEL: 5000 mg/kg/day
  NEL: 12.5 mg/kg/day
  NOAEL: 250 mg/kg/day
[10]; group: maternal, systemic / in life observation / clinical signs / anogenital staining + systemic / in life observation / clinical signs / scabbing
  LOAEL: 5000 mg/kg/day
[10]; [27]
  LEL: 12.5 mg/kg/day
  NEL: < 12.5 mg/kg/day
[10]; group: maternal, systemic / in life observation / clinical signs / salivation + systemic / in life observation / clinical signs / anogenital staining + …
  NOAEL: 250 mg/kg/day
[11]; [28]
  LEL: 35 mg/kg/day
  LOAEL: 35 mg/kg/day
[11]; [29]
  NEL: 5 mg/kg/day
  NOAEL: 5 mg/kg/day
[11]; group: parental, systemic / organ weight / liver / relative to body weight
  LOAEL: 35 mg/kg/day
[11]; group: parental, systemic / organ weight / liver / relative to body weight + systemic / in life observation / clinical signs / discharge on cageboard + …
  NOAEL: 5 mg/kg/day
[11]; [30]
  LEL: 5 mg/kg/day
  NEL: < 5 mg/kg/day
[12]; [31]
  LEL: 300 mg/kg/day
  LOAEL: 300 mg/kg/day
  NEL: 100 mg/kg/day
  NOAEL: 100 mg/kg/day
[12]; [32]
  LEL: 300 mg/kg/day
  LOAEL: 300 mg/kg/day
  NEL: 100 mg/kg/day
  NOAEL: 100 mg/kg/day
[13]
  LEL: 1.1 mg/kg/day
  LOAEL: 25.5 mg/kg/day
  NEL: < 1.1 mg/kg/day
  NOAEL: 3.7 mg/kg/day

## CNC(=O)Oc1cccc2c1OC(C)(C)O2 [Bendiocarb]
[14]
  LEL: 10 mg/kg/day
  LOAEL: 10 mg/kg/day
  NEL: 2 mg/kg/day
  NOAEL: 2 mg/kg/day
[15]; [33]
  LEL: 15 mg/kg/day
  LOAEL: 15 mg/kg/day
  NEL: 3 mg/kg/day
  NOAEL: 3 mg/kg/day
[15]; [34]
  LEL: 3 mg/kg/day
  LOAEL: > 15 mg/kg/day
  NEL: 0.7 mg/kg/day
  NOAEL: ≥ 15 mg/kg/day
[16]; [35]
  LEL: 0.86 mg/kg/day
  LOAEL: 0.86 mg/kg/day
[16]; [36]
  NEL: 0.42 mg/kg/day
  NOAEL: 0.42 mg/kg/day
[16]; [37]
  LEL: 0.72 mg/kg/day
  LOAEL: 0.72 mg/kg/day
  NEL: 0.35 mg/kg/day
  NOAEL: 0.35 mg/kg/day
[17]; group: cholinesterase, cholinesterase / cholinesterase / cholinesterase / plasma cholinesterase (che) + cholinesterase / cholinesterase / cholinesterase / whole …
  NEL: 0.5 mg/kg/day
[17]; group: cholinesterase, cholinesterase / cholinesterase / cholinesterase / whole blood cholinesterase (che)
  LEL: 2.5 mg/kg/day
[17]; [38]
  LOAEL: > 12.5 mg/kg/day
  NOAEL: ≥ 12.5 mg/kg/day
[17]; [39]
  LEL: 12.5 mg/kg/day
  LOAEL: 12.5 mg/kg/day
  NEL: 2.5 mg/kg/day
  NOAEL: 2.5 mg/kg/day

Source: EPA's ToxRefDB 2
